# Values of other authors as cited in article PMC4141160, “Peptide Inhibitor of Complement C1, a Novel Suppressor of Classical Pathway Activation: Mechanistic Studies and Clinical Potential” (Frontiers in Immunology, 2014).
# B1: TNT009: humanized monoclonal analog of TNT003 (antibody, chains of the INN, looked up, V domains shown)
# VH: EVQLVESGGGLVKPGGSLRLSCAASGFTFSNYAMSWVRQAPGKGLEWVATISSGGSHTYYLDSVKGRFTISRDNSKNTLYLQMNSLRAEDTALYYCARLFTGYAMDYWGQGTLVTVSS
# VL: QIVLTQSPATLSLSPGERATMSCTASSSVSSSYLHWYQQKPGKAPKLWIYSTSNLASGVPSRFSGSGSGTDYTLTISSLQPEDFATYYCHQYYRLPPITFGQGTKLEIK
# Legend:
# [1] = system: classical pathway
# [2] = system: CLR of C1q; details: ELISA
# [3] = molecular target: purified C1q; parameters: method as in PMID 22906481; details: surface plasmon resonance, read-out: mean equilibrium dissociation constant (KD)
# [4] = system: alternative pathway
# [5] = system: C1q; parameters: method as in PMID 20728940
# [6] = system: C1
# [7] = system: transfused human RBCs; parameters: method as in PMID 12576307; details: mouse
# [8] = system: C4a; details: single i.v. injection at 30 mg/kg; ELISA
molecule,measurement,setting,value
"IALILEPICCQERAA [PA, rearranged PIC1 Δ8–22 derivative, 15 residues]",Classical pathway inhibition values using 0.77 mM peptide,[1],85%
same,binding to the CLR of C1q,[2],specifically bind to the CLR of C1q
same,Kd,[3],33.3 nM
"PAICQRAEIEACILL [Δ8–22, CPP1 with central region removed, functional peptide of 15 residues]",Classical pathway inhibition values using 0.77 mM peptide,[1],70%
same,effect on the alternative pathway,[4],minimal effect
"PAICQRATATLGTVGSNTSGTTEIEACILL [CPP1, 30-residue PIC1 derivative from the HNP-1 homology region of astrovirus CP]",Classical pathway inhibition values using 0.77 mM peptide,[1],50%
same,inhibition of the binding of CP to C1q,[5],inhibited the binding of CP to C1q
same,"inhibition of C1 activation, as assayed by C1s cleavage",[6],inhibited C1 activation
sCR1: soluble complement receptor 1,hemolysis and C3 and C4 deposition on transfused human RBCs,[7],temporarily inhibit hemolysis as well as C3 and C4 deposition
B1,in vivo generation of C4a,[8],inhibited the in vivo generation of C4a
